Broadly, the inhibition is the drop in the measured response relative to a control, in per cent.

For the assay, the target named is T1, Human glycogen phosphorylase a (Homo sapiens, UniProt P06737).
T1 sequence (P06737 1-847): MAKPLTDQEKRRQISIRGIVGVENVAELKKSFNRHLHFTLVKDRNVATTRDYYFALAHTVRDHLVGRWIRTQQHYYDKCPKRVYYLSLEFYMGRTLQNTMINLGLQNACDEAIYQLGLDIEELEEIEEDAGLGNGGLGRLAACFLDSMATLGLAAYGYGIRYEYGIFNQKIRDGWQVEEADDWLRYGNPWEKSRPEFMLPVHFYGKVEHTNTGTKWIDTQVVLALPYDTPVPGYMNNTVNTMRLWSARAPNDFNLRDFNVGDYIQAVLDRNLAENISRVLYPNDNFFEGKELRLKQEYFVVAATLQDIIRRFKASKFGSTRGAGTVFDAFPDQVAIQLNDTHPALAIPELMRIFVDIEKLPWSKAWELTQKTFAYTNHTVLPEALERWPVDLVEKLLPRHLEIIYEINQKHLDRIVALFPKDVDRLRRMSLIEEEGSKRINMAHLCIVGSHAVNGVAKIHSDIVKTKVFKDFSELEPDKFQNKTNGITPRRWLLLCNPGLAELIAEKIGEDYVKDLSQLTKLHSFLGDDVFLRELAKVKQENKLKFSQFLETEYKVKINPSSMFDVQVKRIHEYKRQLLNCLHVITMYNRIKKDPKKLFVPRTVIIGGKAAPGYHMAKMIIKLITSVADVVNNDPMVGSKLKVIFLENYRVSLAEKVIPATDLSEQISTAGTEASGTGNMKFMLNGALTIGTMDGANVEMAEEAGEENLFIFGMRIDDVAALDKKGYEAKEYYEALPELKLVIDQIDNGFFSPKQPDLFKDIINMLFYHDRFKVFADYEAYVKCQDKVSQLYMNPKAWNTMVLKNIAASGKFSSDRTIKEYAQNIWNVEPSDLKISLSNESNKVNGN
The experiment in a line: Glycogen phosphorylase a activity test (reverse direction, release of inorganic phosphate). It counts as biochemical. The following applies: 10 μM concentration of the test substance; in vitro, duplicate determinations. The procedure: Glycogen Phosphorylase a Activity Test
The effect of compounds on the activity of the active form of glycogen phosphorylase (GPa) was measured in the reverse direction by monitoring the synthesis of glycogen from glucose 1-phosphate by determining the release of inorganic phosphate. All the reactions were carried out as duplicate determinations in 96-well microtiter plates (Half Area Plates, Costar No. 3696), with the change in absorption due to the formation of the reaction product being measured, at the wavelength specified below, in a Multiscan Ascent Elisa Reader (Lab Systems, Finland). In order to measure the enzymic activity of GPa in the reverse direction, the conversion of glucose 1-phosphate into glycogen and inorganic phosphate was measured in accordance with the general method of Engers et al. (Engers H D, Shechosky S, Madsen N B, Can J Biochem 1970 July;48(7): 746–754) but with the following modifications: Human glycogen phosphorylase a (for example containing 0.76 mg of protein/ml (Aventis Pharma Deutschland GmbH), dissolved in buffer solution E (25 mM β-glycerophosphate, pH 7.0, 1 mM EDTA and 1 mM dithiothreitol), was diluted with buffer T (50 mM Hepes, pH 7.0, 100 mM KCl, 2.5 mM EDTA, 2.5 mM MgCl2.6H2O), and addition of 5 mg of glycogen/ml, to a concentration of 10 μg of protein/ml. Test substances were prepared as a 10 mM solution in DMSO and diluted down to 50 μM with buffer solution T. 10 μl of 37.5 mM glucose, dissolved in buffer solution T and 5 mg/ml of glycogen, and also 10 μl of a solution of human glycogen phosphorylase a (10 μg of protein/ml) and 20 μl of glucose 1-phosphate, 2.5 mM, were added to […] of the solution. The basal value of the activity of the glycogen phosphorylase a in the absence of test substance was determined by adding 10 μl of buffer solution T (0.1% DMSO). The mixture was incubated at room temperature for 40 minutes and the inorganic phosphate which was released was measured using the general method of Drueckes et al. (Drueckes P, Schinzel R, Palm D, Anal Biochem 1995 Sep. 1;230(1):173–177) but with the following modifications: 50 μl of a stop solution of 7.3 mM ammonium molybdate, 10.9 mM zinc acetate, 3.6% ascorbic acid, 0.9% SDS are added to 50 μl of the enzyme mixture. After 60 minutes of incubation at 45° C., the absorption was measured at 820 nm. In order to determine the background absorption, the stop solution was added immediately after adding the glucose 1-phosphate solution in a separate assay. This test was carried out using a 10 μM concentration of the test substance in order to determine the respective inhibition of glycogen phosphorylase a by the test substance in vitro.
Take `O=C(O)C=Cc1ccccc1NC(=O)NC(=O)c1cc(F)c(F)cc1Cl` [Example 2, 3-{2-[3-(2-chloro-4,5-difluorobenzoyl)ureido]phenyl}acrylic acid]: the inhibition at 10 µM was determined as 101%.

For `CC(=O)Nc1ccc(C=CC(=O)O)c(NC(=O)NC(=O)c2cc(F)c(F)cc2Cl)c1` [Example 3, 3-{4-Acetylamino-2-[3-(2-chloro-4,5-difluorobenzoyl)ureido]phenyl}acrylic acid], the inhibition at 10 µM was 95%.

Regarding `COC(=O)C=Cc1cc(C(=O)O)ccc1NC(=O)NC(=O)c1cc(F)c(F)cc1Cl` [Example 7, 4-[3-(2-chloro-4,5-difluorobenzoyl)ureido]-3-(2-methoxycarbonylvinyl)benzoic acid], the inhibition at 10 µM was determined as 96%.

With `COC(=O)C=Cc1cc(C(=O)OC)ccc1NC(=O)NC(=O)c1cc(F)c(F)cc1Cl` [Example 11, Methyl 4-[3-(2-chloro-4,5-difluorobenzoyl)ureido]-3-(2-methoxycarbonylvinyl)benzoate], the inhibition at 10 µM is 91%.
